Patent US9247759B2, “Identification of human T2R receptors that respond to bitter compounds that elicit the bitter taste in compositions, and the use thereof in assays to identify compounds that inhibit (block) bitter taste in compositions and use thereof” (SENOMYX, INC., priority 2007, dated 2016)
Read-outs that look alike come from different tables or passages of the source.

Tests used:
[1] = target: hT2R3 (Homo sapiens (Human), UniProt Q9NYW6); experiment: hT2R panel inhibition, transient HEK293 G16g44, agonist Chloroquine pH6.5 50 μM; format: cell-based; conditions: HEK293, compound at 25 μM; receptor activated to EC80 with the corresponding agonist; read-out: screening result against bitter receptor 3
In short: (§1)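 Each of 22 human bitter receptors was expressed individually by transient transfection in cells stably carrying the promiscuous G protein. Agonists were applied at EC80, and inhibition was scored as the drop in receptor activity with the test compound present.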

[2] = target: hT2R5 (Homo sapiens (Human), UniProt Q9NYW4); experiment: hT2R panel inhibition, transient HEK293 G16g44, agonist Picoline 10 mM; format: cell-based; conditions: HEK293, compound at 25 μM; receptor activated to EC80 with the corresponding agonist; read-out: screening result against bitter receptor 5
In short: as §1

[3] = tested on: hT2R65; experiment: hT2R panel inhibition, transient HEK293 G16g44, agonist Oleuropein 1 mM; format: cell-based, human; conditions: compound at 25 μM; receptor activated to EC80 with the corresponding agonist
In short: as §1

[4] = target: hT2R75 (Homo sapiens (Human), UniProt P59540); experiment: hT2R panel inhibition, transient HEK293 G16g44, agonist Strychnine 1 μM; format: cell-based; conditions: HEK293, read-out: screening result against bitter receptor 75, compound at 25 μM; receptor activated to EC80 with the corresponding agonist
[5] = target: hT2R10 (Homo sapiens (Human), UniProt Q9NYW0); experiment: hT2R panel inhibition, transient HEK293 G16g44, agonist Strychnine 50 μM; format: cell-based; conditions: HEK293, read-out: screening result against bitter receptor 10, compound at 25 μM; receptor activated to EC80 with the corresponding agonist
[6] = tested on: hT2R67; experiment: hT2R panel inhibition, transient HEK293 G16g44, agonist Andrographolide 5 μM; format: cell-based, human; conditions: compound at 25 μM; receptor activated to EC80 with the corresponding agonist
In short: as §1

[7] = target: hT2R16 (Homo sapiens (Human), UniProt Q9NYV7); experiment: hT2R panel inhibition, transient HEK293 G16g44, agonist Salicin 1 mM; format: cell-based; conditions: HEK293, compound at 25 μM; receptor activated to EC80 with the corresponding agonist; read-out: screening result against bitter receptor 16
In short: as §1

[8] = target: hT2R61 (Homo sapiens (Human), UniProt P59537); experiment: hT2R panel inhibition, transient HEK293 G16g44, agonist Aristolochic Acid 25 nM; format: cell-based; conditions: HEK293, compound at 25 μM; receptor activated to EC80 with the corresponding agonist; read-out: screening result against bitter receptor 61
In short: as §1

[9] = tested on: hT2R54; experiment: hT2R panel inhibition, transient HEK293 G16g44, agonist Ranitidine 5 mM; format: cell-based, human; conditions: compound at 25 μM; receptor activated to EC80 with the corresponding agonist
In short: as §1

[10] = target: hT2R64 (Homo sapiens (Human), UniProt P59538); experiment: hT2R panel inhibition, transient HEK293 G16g44, agonist Aristolochic Acid 1 μM; format: cell-based; conditions: HEK293, compound at 25 μM; receptor activated to EC80 with the corresponding agonist; read-out: screening result against bitter receptor 64
In short: as §1

[11] = tested on: hT2R63; experiment: hT2R panel inhibition, transient HEK293 G16g44, agonist Caffeine 1 mM or Andrographolide 100 μM; format: cell-based, human; conditions: compound at 25 μM; receptor activated to EC80 with the corresponding agonist
In short: as §1

[12] = tested on: hT2R44; experiment: hT2R panel inhibition, transient HEK293 G16g44, agonist Denatonium 0.5 μM; format: cell-based, human; conditions: compound at 25 μM; receptor activated to EC80 with the corresponding agonist
In short: as §1

[13] = target: T1, hT2R14 (Homo sapiens (Human), UniProt Q9NYV8); experiment: hT2R14 antagonist high-throughput FLIPR assay, stable cell line with G16g44, agonist aristolochic acid; format: cell-based
In short: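 HEK293 cells stably expressing hT2R14 with chimeric G16g44 were stimulated with aristolochic acid (3 μM), giving 70-80% of maximal receptor activity. Test compounds were added together with the agonist, and antagonism was read as fluorescent calcium signal on FLIPR.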

[14] = target: hT2R71 (Homo sapiens (Human), UniProt P59536); experiment: hT2R panel inhibition, transient HEK293 G16g44, agonist Picric Acid 10 μM; format: cell-based; conditions: HEK293, compound at 25 μM; receptor activated to EC80 with the corresponding agonist; read-out: screening result against bitter receptor 71
In short: as §1

[15] = target: hT2R51 (Homo sapiens (Human), UniProt P59533); experiment: hT2R panel inhibition, transient HEK293 G16g44, agonist Prop 2.5 μM; format: cell-based; conditions: HEK293, compound at 25 μM; receptor activated to EC80 with the corresponding agonist; read-out: screening result against bitter receptor 51
In short: as §1

[16] = target: T1, hT2R14; experiment: hT2R panel inhibition, transient HEK293 G16g44, agonist Aristolochic Acid 2 μM; format: cell-based; conditions: HEK293, compound at 25 μM; receptor activated to EC80 with the corresponding agonist; read-out: screening result against bitter receptor 14
In short: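 Each hT2R was transiently transfected into HEK293 cells stably expressing G16g44 and assayed functionally for inhibition of agonist response. Agonists were applied at EC80: andrographolide at 0.5 mM for hT2R8 and aristolochic acid at 2 μM for hT2R14.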

[17] = target: hT2R7 (Homo sapiens (Human), UniProt Q9NYW3); experiment: hT2R panel inhibition, transient HEK293 G16g44, agonist Chloroquine pH6.5 10 mM; format: cell-based; conditions: HEK293, compound at 25 μM; receptor activated to EC80 with the corresponding agonist; read-out: screening result against bitter receptor 7
In short: as §1

[18] = tested on: hT2R55; experiment: hT2R panel inhibition, transient HEK293 G16g44, agonist Cinchonine 150 μM; format: cell-based, human; conditions: compound at 25 μM; receptor activated to EC80 with the corresponding agonist
In short: as §1

[19] = target: hT2R4 (Homo sapiens (Human), UniProt Q9NYW5); experiment: hT2R panel inhibition, transient HEK293 G16g44, agonist Chloroquine pH6.5 5 mM; format: cell-based; conditions: HEK293, compound at 25 μM; receptor activated to EC80 with the corresponding agonist; class symbols; read-out: screening result against bitter receptor 4
In short: as §1

[20] = read-out: IC50 on hT2R14 bitter receptor

hT2R51, sequence (P59533 whole entry): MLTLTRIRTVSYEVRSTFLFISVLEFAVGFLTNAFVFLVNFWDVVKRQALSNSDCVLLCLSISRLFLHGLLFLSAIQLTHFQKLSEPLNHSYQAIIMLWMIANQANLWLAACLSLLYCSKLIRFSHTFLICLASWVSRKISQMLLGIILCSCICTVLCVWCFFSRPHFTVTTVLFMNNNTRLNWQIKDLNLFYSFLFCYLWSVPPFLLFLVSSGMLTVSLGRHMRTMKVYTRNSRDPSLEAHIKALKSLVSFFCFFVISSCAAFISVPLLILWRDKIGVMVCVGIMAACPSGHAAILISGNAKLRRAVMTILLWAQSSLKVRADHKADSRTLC
hT2R75, sequence (P59540 whole entry): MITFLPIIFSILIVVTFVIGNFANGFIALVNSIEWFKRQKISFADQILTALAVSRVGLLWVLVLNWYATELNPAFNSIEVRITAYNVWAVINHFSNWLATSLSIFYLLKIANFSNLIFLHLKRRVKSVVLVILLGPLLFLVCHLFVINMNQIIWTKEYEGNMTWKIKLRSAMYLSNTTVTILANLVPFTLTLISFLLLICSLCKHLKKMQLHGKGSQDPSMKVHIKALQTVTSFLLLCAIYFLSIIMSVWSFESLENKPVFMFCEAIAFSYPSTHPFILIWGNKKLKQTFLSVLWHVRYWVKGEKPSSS
hT2R3, sequence (Q9NYW6 whole entry): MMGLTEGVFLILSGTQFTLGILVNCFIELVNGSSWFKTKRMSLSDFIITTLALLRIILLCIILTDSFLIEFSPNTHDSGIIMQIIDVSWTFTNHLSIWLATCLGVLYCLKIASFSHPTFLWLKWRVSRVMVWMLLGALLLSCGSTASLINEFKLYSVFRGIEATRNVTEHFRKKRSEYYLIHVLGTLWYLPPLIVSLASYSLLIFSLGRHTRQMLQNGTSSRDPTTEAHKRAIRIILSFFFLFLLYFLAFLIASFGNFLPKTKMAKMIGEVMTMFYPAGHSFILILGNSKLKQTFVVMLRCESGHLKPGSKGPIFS
hT2R7, sequence (Q9NYW3 whole entry): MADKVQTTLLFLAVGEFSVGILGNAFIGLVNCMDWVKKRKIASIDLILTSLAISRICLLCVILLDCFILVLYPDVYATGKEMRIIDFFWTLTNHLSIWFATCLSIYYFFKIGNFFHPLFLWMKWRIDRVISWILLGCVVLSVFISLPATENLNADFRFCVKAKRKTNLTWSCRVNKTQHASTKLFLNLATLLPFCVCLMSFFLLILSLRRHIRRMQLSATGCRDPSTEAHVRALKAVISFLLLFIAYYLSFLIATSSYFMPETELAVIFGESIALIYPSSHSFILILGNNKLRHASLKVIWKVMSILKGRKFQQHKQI
hT2R16, sequence (Q9NYV7 whole entry): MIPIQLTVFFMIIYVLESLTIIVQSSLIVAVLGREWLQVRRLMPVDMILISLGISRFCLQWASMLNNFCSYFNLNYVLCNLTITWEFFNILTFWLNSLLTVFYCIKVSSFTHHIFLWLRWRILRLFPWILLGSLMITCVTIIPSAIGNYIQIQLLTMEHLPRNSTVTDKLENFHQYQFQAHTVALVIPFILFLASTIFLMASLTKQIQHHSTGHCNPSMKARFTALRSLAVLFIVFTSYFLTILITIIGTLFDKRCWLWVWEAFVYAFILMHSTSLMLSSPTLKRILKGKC
T1 sequence (Q9NYV8 whole entry): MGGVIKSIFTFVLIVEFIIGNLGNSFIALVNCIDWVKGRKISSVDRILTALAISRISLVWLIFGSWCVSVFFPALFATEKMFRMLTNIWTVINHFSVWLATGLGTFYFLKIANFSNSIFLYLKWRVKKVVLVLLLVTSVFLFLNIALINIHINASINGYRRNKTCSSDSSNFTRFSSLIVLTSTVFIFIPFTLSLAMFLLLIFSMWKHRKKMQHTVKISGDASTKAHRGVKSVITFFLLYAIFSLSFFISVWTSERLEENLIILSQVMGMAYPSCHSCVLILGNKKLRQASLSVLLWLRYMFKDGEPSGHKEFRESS
hT2R64, sequence (P59538 whole entry): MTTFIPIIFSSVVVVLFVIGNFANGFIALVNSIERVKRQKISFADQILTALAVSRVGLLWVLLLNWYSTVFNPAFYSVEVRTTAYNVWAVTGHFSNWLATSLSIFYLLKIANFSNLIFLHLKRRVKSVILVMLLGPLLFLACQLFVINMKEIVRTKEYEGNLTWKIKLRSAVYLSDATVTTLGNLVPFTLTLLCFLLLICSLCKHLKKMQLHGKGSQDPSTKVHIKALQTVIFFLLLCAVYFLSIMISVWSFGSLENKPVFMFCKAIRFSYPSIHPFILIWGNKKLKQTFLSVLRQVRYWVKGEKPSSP
hT2R4, sequence (Q9NYW5 whole entry): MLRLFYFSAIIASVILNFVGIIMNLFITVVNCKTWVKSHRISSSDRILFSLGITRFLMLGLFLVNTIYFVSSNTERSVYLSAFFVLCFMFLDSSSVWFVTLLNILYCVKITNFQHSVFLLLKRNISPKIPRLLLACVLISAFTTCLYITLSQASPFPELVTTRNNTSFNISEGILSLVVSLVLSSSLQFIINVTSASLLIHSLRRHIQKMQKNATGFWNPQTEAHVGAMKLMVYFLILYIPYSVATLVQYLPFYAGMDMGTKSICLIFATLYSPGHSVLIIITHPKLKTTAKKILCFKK
hT2R10, sequence (Q9NYW0 whole entry): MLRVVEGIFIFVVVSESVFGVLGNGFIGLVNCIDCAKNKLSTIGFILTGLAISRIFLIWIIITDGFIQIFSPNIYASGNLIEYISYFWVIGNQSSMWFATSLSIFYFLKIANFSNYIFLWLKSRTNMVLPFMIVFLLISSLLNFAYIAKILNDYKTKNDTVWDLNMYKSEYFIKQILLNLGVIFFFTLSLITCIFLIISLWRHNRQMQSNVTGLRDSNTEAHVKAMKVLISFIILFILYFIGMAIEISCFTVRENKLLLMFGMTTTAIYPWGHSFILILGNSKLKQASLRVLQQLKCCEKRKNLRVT
hT2R61, sequence (P59537 whole entry): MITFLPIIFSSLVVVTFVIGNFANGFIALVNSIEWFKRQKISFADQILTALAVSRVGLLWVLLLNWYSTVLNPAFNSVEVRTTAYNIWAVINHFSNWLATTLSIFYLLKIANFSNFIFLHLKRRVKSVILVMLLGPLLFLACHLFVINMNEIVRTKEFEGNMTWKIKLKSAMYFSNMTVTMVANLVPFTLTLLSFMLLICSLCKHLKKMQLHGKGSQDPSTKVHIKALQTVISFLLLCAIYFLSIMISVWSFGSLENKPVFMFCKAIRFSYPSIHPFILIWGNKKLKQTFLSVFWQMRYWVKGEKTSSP
hT2R71, sequence (P59536 whole entry): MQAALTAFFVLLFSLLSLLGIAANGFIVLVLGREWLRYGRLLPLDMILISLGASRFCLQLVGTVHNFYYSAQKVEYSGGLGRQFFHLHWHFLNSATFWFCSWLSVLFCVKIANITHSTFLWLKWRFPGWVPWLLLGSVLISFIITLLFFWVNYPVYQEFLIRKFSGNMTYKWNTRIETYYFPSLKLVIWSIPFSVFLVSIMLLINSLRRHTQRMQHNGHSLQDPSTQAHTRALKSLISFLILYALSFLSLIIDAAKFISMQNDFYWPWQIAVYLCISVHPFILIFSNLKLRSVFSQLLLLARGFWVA
hT2R5, sequence (Q9NYW4 whole entry): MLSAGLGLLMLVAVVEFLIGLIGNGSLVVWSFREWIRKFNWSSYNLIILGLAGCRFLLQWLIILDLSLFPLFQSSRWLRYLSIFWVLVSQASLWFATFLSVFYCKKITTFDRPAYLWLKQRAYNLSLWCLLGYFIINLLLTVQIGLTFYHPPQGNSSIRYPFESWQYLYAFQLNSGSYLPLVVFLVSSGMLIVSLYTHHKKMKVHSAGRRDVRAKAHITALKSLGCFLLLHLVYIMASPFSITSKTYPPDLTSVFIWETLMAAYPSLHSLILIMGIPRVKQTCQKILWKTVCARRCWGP

SMILES	inhibition at 25 µM [1]	inhibition at 25 µM [2]	screening result against bitter receptor 65 [3]	inhibition at 25 µM [4]	inhibition at 25 µM [5]	screening result against bitter receptor 67 [6]	inhibition at 25 µM [7]	inhibition at 25 µM [8]	screening result against bitter receptor 54 [9]	inhibition at 25 µM [10]	screening result against bitter receptor 63 [11]	screening result against bitter receptor 44 [12]	IC50 ([13]; Table C, read-out: hT2R14 IC50)	inhibition at 25 µM [14]	inhibition at 25 µM [15]	inhibition at 25 µM [16]	inhibition at 25 µM [17]	screening result against bitter receptor 55 [18]	inhibition at 25 µM [19]	IC50 [13, 20]
COc1ccc(CN(Cc2ccc(C(=O)O)cc2)S(=O)(=O)c2ccccc2)cc1 [Example 5-102, 4-((N-(4-methoxybenzyl)phenylsulfonamido)methyl) benzoic acid]	40 to 60%	20 to 40%	++ (40% to 60% inhibition = ++)	20 to 40%	20 to 40%	+ (20% to 40% inhibition = +)	20 to 40%	> 80%	+ (20% to 40% inhibition = +)	60 to 80%	+ (20% to 40% inhibition = +)	+++ (60% to 80% inhibition = +++)	2220 nM	60 to 80%	20 to 40%	> 80%	40 to 60%	++++ (80% or greater inhibition = ++++)	40 to 60%	–
COc1cccc(CN(Cc2ccco2)S(=O)(=O)c2ccc(C(=O)O)cc2)c1 [Example 5-6, 4-(N-(furan-2-ylmethyl)-N-(3-methoxybenzyl)sulfamoyl)benzoic acid]	20 to 40%	–	+ (20% to 40% inhibition = +)	20 to 40%	40 to 60%	–	20 to 40%	> 80%	+ (20% to 40% inhibition = +)	> 80%	++++ (80% or greater inhibition = ++++)	++ (40% to 60% inhibition = ++)	–	40 to 60%	40 to 60%	> 80%	20 to 40%	++++ (80% or greater inhibition = ++++)	20 to 40%	10000 nM
O=C(O)c1ccc(CN(Cc2ccc(F)cc2)S(=O)(=O)c2ccccc2)cc1 [Example 5-105, 4-((N-(4-fluorobenzyl)phenylsulfonamido)methyl)-benzoic acid]	20 to 40%	20 to 40%	+++ (60% to 80% inhibition = +++)	20 to 40%	20 to 40%	++ (40% to 60% inhibition = ++)	40 to 60%	> 80%	+ (20% to 40% inhibition = +)	> 80%	++ (40% to 60% inhibition = ++)	++ (40% to 60% inhibition = ++)	935 nM	60 to 80%	–	> 80%	20 to 40%	++++ (80% or greater inhibition = ++++)	20 to 40%	–
CCCOc1ccc(CN(Cc2ccco2)S(=O)(=O)c2ccc(C(=O)O)cc2)cc1 [Example 5-8, 4-(N-(4-propoxybenzyl)-N-(furan-2-ylmethyl)sulfamoyl)benzoic acid]	20 to 40%	–	++ (40% to 60% inhibition = ++)	20 to 40%	40 to 60%	–	20 to 40%	60 to 80%	+ (20% to 40% inhibition = +)	> 80%	++ (40% to 60% inhibition = ++)	++ (40% to 60% inhibition = ++)	–	40 to 60%	40 to 60%	> 80%	–	++++ (80% or greater inhibition = ++++)	40 to 60%	2500 nM
